Reference: BindingDB's records for doi:10.7270/Q2Q52N1X (Vanderbilt Screening Center for GPCRs, Ion Channels and …, 2009)

Target: T1, Solute carrier family 12 member 5 (Homo sapiens, UniProt Q9H2X9)
T1 sequence (Q9H2X9 whole entry): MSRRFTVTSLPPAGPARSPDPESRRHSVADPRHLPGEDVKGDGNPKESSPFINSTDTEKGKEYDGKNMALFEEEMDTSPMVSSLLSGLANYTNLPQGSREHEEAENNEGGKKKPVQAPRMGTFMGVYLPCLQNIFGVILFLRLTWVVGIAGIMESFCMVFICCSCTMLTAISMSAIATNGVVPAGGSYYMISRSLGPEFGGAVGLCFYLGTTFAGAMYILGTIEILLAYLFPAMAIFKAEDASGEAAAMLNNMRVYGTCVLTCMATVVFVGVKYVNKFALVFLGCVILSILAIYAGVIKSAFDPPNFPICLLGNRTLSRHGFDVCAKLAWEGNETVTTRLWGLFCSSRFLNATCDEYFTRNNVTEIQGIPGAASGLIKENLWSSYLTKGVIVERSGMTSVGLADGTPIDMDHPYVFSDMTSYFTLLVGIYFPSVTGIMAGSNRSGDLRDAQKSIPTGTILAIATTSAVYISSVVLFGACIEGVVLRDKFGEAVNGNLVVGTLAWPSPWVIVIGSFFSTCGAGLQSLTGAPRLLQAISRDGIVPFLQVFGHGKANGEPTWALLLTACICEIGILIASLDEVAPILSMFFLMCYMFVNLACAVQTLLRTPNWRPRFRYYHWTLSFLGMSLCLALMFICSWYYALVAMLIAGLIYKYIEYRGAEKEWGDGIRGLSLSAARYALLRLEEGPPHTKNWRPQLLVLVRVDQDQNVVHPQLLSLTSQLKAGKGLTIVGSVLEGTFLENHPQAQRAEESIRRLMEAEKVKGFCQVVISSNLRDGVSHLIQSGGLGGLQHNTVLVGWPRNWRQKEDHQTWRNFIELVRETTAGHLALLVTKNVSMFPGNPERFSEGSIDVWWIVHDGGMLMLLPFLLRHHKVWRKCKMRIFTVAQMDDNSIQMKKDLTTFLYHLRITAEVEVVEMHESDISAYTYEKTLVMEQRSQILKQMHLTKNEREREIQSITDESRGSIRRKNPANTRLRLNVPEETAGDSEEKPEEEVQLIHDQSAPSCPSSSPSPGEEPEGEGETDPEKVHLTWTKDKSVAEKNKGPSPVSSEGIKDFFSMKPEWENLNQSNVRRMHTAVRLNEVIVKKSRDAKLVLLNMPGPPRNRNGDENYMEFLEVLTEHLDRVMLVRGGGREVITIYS
Test: KCC2 modulator potency by thallium flux, dose response, cell-based, HEK293 KCC2, FluoZin-2 fluorescence (AID 1736)
Settings: not given

Compared with `COc1cccc(CNC(=O)CSc2ccc(-c3cccs3)nn2)c1` [MLS000621194], `CCC(c1nnc(SCc2nc3ccccc3s2)n1Cc1ccccc1)N(C)C` (stereo not drawn) [1-[5-(1,3-benzothiazol-2-ylmethylsulfanyl)-4-(phenylmethyl)-1,2,4-triazol-3-yl]-N,N-dimethyl-propan-1-amine] is 5.2-fold lower in EC50: 34.2 µM for the first, 6.62 µM for the second.

First: CC1Cc2ccccc2N1C(=O)CSc1nnnn1Cc1ccccc1 (stereo not drawn) [1-(2-methyl-2,3-dihydroindol-1-yl)-2-[[1-(phenylmethyl)-1,2,3,4-tetrazol-5-yl]sulfanyl]ethanone]
Second: O=C(NCc1nc(-c2ccccc2)cs1)c1ccccc1 [MLS000661971]
The EC50 of the first is 4-fold lower: 1.91 µM for the first, 7.64 µM for the second. The first is the more potent here.

Compared with `O=C(C1CCN(S(=O)(=O)c2cccs2)CC1)N1CCc2ccccc2C1` [3,4-dihydro-1H-isoquinolin-2-yl-(1-thiophen-2-ylsulfonyl-4-piperidinyl)methanone], `O=C(OCC(=O)N1CCN(C(=O)c2ccco2)CC1)c1sc2ccccc2c1Cl` [3-chloro-1-benzothiophene-2-carboxylic acid [2-[4-[2-furanyl(oxo)methyl]-1-piperazinyl]-2-oxoethyl] ester] is 7-fold lower in EC50: 4.18 µM for the first, 0.599 µM for the second. The second is the more potent here.

`CCOc1cc(Br)ccc1S(=O)(=O)NCc1ccccc1` [4-bromanyl-2-ethoxy-N-(phenylmethyl)benzenesulfonamide] showed an EC50 of 1.36 µM.

Same assay, conditions: inactive by the depositor's call

With `O=c1cc(CSc2nnnn2-c2ccccc2)nc2scc(-c3ccccc3)n12` [3-phenyl-7-[(1-phenyl-1,2,3,4-tetrazol-5-yl)sulfanylmethyl]-[1,3]thiazolo[3,2-a]pyrimidin-5-one] the EC50 was 4610 µM.
